The values that follow come from patent publication US20090270435A1 (priority 2006, published 2009).

Where a name gives a salt, the structure may show the parent alone.

The first assay concerns the target T1, ACC1 from rat liver (Rattus norvegicus, UniProt P11497).
T1 construct: The livers (for ACC1 preparation) or skeletal muscle tissue (for ACC2 preparation) are removed; from tissue; host or cells: liver of male CD rats (fasted, then fed a high sucrose diet)
The assay is described as follows: Direct inhibition of ACC1 activity (14C-bicarbonate incorporation). The format is biochemical. Particulars: ACC1 from rat liver. Here is the method:
[1] Preparation of ACC1 and ACC2.
Male CD rats weighing 150-200 g are fasted for 2 days and then fed a high sucrose diet (AIN-76A rodent diet; Cat # D10001, Research Diets Inc., New Brunswick, N.J.), for 3 days at which time they are sacrificed by CO2 asphyxiation. The livers (for ACC1 preparation) or skeletal muscle tissue (for ACC2 preparation) are removed, rinsed in ice-cold phosphate-buffered saline (PBS), and homogenized in 5 volumes of homogenization buffer (50 mM potassium phosphate, pH 7.5, 10 mM EDTA, 10 mM 2-mercaptoethanol, 2 mM benzamidine, 0.2 mM phenylmethylsulfonylfluoride (PMSF), 5 mg/L each leupeptin, aprotinin, and antitrypsin) in a Waring® blender for 1 minute at 4° C. All subsequent operations are carried out at 4° C. The homogenate is made 3% with respect to polyethylene glycol (PEG) by the addition of 50% PEG solution and centrifuged at 20,000×g for 15 minutes. The resulting supernatant is adjusted to 5% PEG with the addition of 50% PEG solution and stirred for 5 minutes. The pellet (contains ACC activity) is collected by centrifugation at 20,000×g for 20 minutes, rinsed with Ice-cold doubly distilled water to remove excess PEG and re-suspended in one-fourth the original homogenate volume with homogenization buffer. Ammonium sulfate (200 g/liter) is slowly added with stirring. After 45 minutes the enzyme is collected by centrifugation for 30 minutes at 20,000×g, re-suspended in 10 ml of 50 mM HEPES, pH7.5, 0.1 mM DTT, 1.0 mM EDTA, and 10% glycerol and desalted on a Sephadex™ G-25 column (2.5 cm-x 50 cm) (Pharmacia, Piscataway N.J. now GE Healthcare) […] equilibrated with the same buffer. The desalted enzyme preparation is stored in aliquots at −70° C. Immediately prior to use, frozen ACC1 or ACC2 aliquots are thawed, diluted to 500 μg/ml in buffer containing 50 mM HEPES, pH7.5, 1.0 mM MgCl2, 10 mM tripotassium citrate, 2.0 mM dithiothreitol (DTT), and 0.75 mg/ml fatty acid-free bovine serum albumin (BSA) and pre-incubated at 37° C. for 30 minutes.
[2] Measurement of ACC inhibition. The procedures for measuring ACC1 inhibition and ACC2 inhibition are identical except for the source of the isozyme. For measurement of ACC activity and assessment of ACC inhibition, test compounds are dissolved in dimethylsulfoxide (DMSO) and 1 μL aliquots are placed in 0.5 ml polypropylene tubes. Control tubes contain 1 μL of DMSO alone. Tubes are incubated at 37° C. in a constant temperature water bath. […] The reaction is then initiated by the addition of 10 μL of preincubated ACC fraction prepared as described above. After 7 minutes the reaction is terminated by the addition of 50 μL of 6N HCl and a 150 μL aliquot of the reaction mixture is transferred to glass scintillation vials and evaporated to dryness at 90° C. for at least 1 hour. The dried vials are then cooled, 0.5 ml of water and 5.5 ml of Ready Safe liquid scintillation fluid (Beckman Coulter Inc., Fullerton, Calif.) are added, and the radioactivity is determined using a liquid scintillation counter. Tubes that received HCl before ACC served as blanks.
A word on the IC50: it is the point on the concentration scale where inhibition reaches its midpoint. Read a low IC50 as greater potency. `Cc1cc2c(cc1Cl)C(=O)CC1(CCN(C(=O)c3ccc4[nH]nnc4c3)CC1)O2` [Ex. L40, 1′-(1H-1,2,3-benzotriazol-5-ylcarbonyl)-6-chloro-7-methylspiro[chromene-2,4′-piperidin]-4(3H)-one] showed a 50% inhibitory concentration (IC50) of 4860 nM.

Regarding `COc1cc(C)c2c(c1)OC1(CCN(C(=O)c3cc(C)c4[nH]ncc4c3)CC1)CC2=O` [Ex. A28, 7-methoxy-5-methyl-1′-[(7-methyl-1H-indazol-5-yl)carbonyl]spiro[chromene-2,4′-piperidin]-4(3H)-one], the IC50 worked out at 138 nM.

The compound `Cc1n[nH]c2cc(C(=O)N3CCC4(CC3)CC(=O)c3cc(C(=O)O)ccc3O4)ccc12` [Ex. F5, 1′-[(3-methyl-1H-indazol-6-yl)carbonyl]-4-oxo-3,4-dihydrospiro[chromene-2,4′-piperidine]-6-carboxylic acid trifluoroacetic acid salt] registered a half-maximal inhibitory concentration (IC50) of 586 nM.

`Cc1cc2c(cc1Cl)C(=O)CC1(CCN(C(=O)c3ccc4c(cnn4C)c3)CC1)O2` [Ex. D3, 6-chloro-7-methyl-1′-[(1-methyl-1H-indazol-5-yl)carbonyl]spiro[chromene-2,4′-piperidin]-4(3H)-one]: the concentration for half-maximal inhibition (IC50) was 250 nM.

For the compound `Cc1cc2c(cc1C)C(=O)CC1(CCN(C(=O)c3ccc4[nH]c(-c5ccccn5)nc4c3)CC1)O2` [Ex. L26, 6,7-dimethyl-1′-[(2-pyridin-2-yl-1H-benzimidazol-5-yl)carbonyl]spiro[chromene-2,4′-piperidin]-4(3H)-one trifluoroacetic acid salt], the IC50 amounted to 63.5 nM.

As to `Cc1cc(C(=O)N2CCC3(CC2)CC(=O)c2cc(C(=O)O)ccc2O3)cc2cn[nH]c12` [Ex. A33, 1′-[(7-methyl-1H-indazol-5-yl)carbonyl]-4-oxo-3,4-dihydrospiro[chromene-2,4′-piperidine]-6-carboxylic acid trifluoroacetic acid salt], the concentration for half-maximal inhibition (IC50) worked out at 303 nM. This IC50 is about 4.8-fold higher than that of the compound before.

With `Cc1cc(C)c2c(c1)C(=O)CC1(CCN(C(=O)c3cccc4cn[nH]c34)CC1)O2` [Ex. H13, 1′-(1H-indazol-7-ylcarbonyl)-6,8-dimethylspiro[chromen-2,4′-piperidin]-4(3H)-one], half-maximal inhibition (IC50) required 1320 nM.

Consider `COc1ccc2c(c1F)C(=O)CC1(CCN(C(=O)c3cc(Cl)c4[nH]ncc4c3)CC1)O2` [Ex. B11], for which the half-inhibitory concentration (IC50) is 217 nM.

Compound `CCc1nc2cc(C(=O)N3CCC4(CC3)CC(=O)c3c(OC)cccc3O4)ccc2n1-c1cccc(OC)c1` [Ex. L31, 1′-{[2-ethyl-1-(3-methoxyphenyl)-1H-benzimidazol-5-yl]carbonyl}-5-methoxyspiro[chromene-2,4′-piperidin]-4(3H)-one] showed an IC50 of 1140 nM.

For `COc1cc2c(c(OC)c1OC)C(=O)CC1(CCN(C(=O)c3cccc4cn[nH]c34)CC1)O2` [Ex. H11, 1′-(1H-indazol-7-ylcarbonyl)-5,6,7-trimethoxyspiro[chromene-2,4′-piperidin]-4(3H)-one], the IC50 worked out at 756 nM.

Take `COc1cccc2c1C(=O)CC1(CCN(C(=O)c3ccc4[nH]c5c(c4c3)CCCC5)CC1)O2` [Ex. L16, 5-methoxy-1′-(2,3,4,9-tetrahydro-1H-carbazol-6-ylcarbonyl)spiro[chromene-2,4′-piperidin]-4(3H)-one]: the IC50 turned out to be 65 nM. This IC50 is about 12-fold lower than that of the compound before.

Regarding `COc1cccc2c1C(=O)CC1(CCN(C(=O)c3ccc4nc(-c5ccccc5)[nH]c4c3)CC1)O2` [Ex. L35, 5-methoxy-1′-[(2-phenyl-1H-benzimidazol-6-yl)-carbonyl]spiro[chromene-2,4′-piperidin]-4(3H)-one], the IC50 worked out at 15.5 nM.

On to `Cc1cc2c(cc1C)C(=O)CC1(CCN(C(=O)c3cccc4c3ccn4C)CC1)O2` [Ex. L15, 6,7-dimethyl-1′-[(1-methyl-1H-indol-4-yl)carbonyl]spiro[chromene-2,4′-piperidin]-4(3H)-one], for which the IC50 was found to be 415 nM.

`Cc1cc2c(cc1Cl)C(=O)CC1(CCN(C(=O)c3ccc4[nH]ccc4c3)CC1)O2` [Ex. L8, 6-chloro-1′-(1H-indol-5-ylcarbonyl)-7-methylspiro[chromene-2,4′-piperidin]-4(3H)-one] showed a concentration for half-maximal inhibition (IC50) of 456 nM.

For `Cc1cc(C(=O)N2CCC3(CC2)CC(=O)c2cc(F)c(Cl)cc2O3)cc2cn[nH]c12` [Ex. A22, 7-chloro-6-fluoro-1′-[(7-methyl-1H-indazol-5-yl)carbonyl]spiro[chromene-2,4′-piperidin]-4(3H)-one], the half-inhibitory concentration (IC50) is 104 nM.

As for `Cc1ccc2c(c1)OC1(CCN(C(=O)c3cccc4cn[nH]c34)CC1)CC2=O` [Ex. H12, 1′-(1H-indazol-7-ylcarbonyl)-7-methylspiro[chromene-2,4-piperidin]4(3H)-one], the IC50 was found to be 850 nM.

With `Cc1ccc2c(c1)C(=O)CC1(CCN(C(=O)c3cc(C)c4[nH]ncc4c3)CC1)O2` [Ex. A15, 6-methyl-1′-[(7-methyl-1H-indazol-5-yl)carbonyl]spiro[chromene-2,4′-piperidin]-4(3H)-one], the midpoint of inhibition, the IC50, lay at 53.6 nM.

Turning to `O=C1CC2(CCN(C(=O)c3cccc4cn[nH]c34)CC2)Oc2cc(-c3ccccc3)ccc21` [Ex. H18, 1′-(1H-indazol-7-ylcarbonyl)-7-phenylspiro[chromene-2,4′-piperidin]-4(3H)-one], half-maximal inhibition (IC50) was put at 2210 nM. This IC50 is about 41-fold higher than that of the compound before.

As for `Cc1cc(C)c2c(c1)OC1(CCN(C(=O)c3cc(C)c4[nH]ncc4c3)CC1)CC2=O` [Ex. A29, 5,7-dimethyl-1′-[(7-methyl-1H-indazol-5-yl)carbonyl]spiro[chromene-2,4′-piperidin]-4(3H)-one], the IC50 amounted to 146 nM.

Consider `Cc1cc2c(cc1Br)C(=O)CC1(CCN(C(=O)c3cc(C)c4[nH]ncc4c3)CC1)O2` [Ex. A8, 6-bromo-7-methyl-1′-[(7-methyl-1H-indazol-5-yl)carbonyl]spiro[chromene-2,4′-piperidin]-4(3H)-one], for which the IC50 turned out to be 32.6 nM.

Staying with this assay, now noted: Table of Examples M1-M36.
For the compound `Cc1cc2c(c(C)c1Cl)C(=O)CC1(CCN(C(=O)c3cccc(-c4cc[nH]n4)c3)CC1)O2` [M22, 6-chloro-5,7-dimethyl-1′-[3-(1H-pyrazol-3-yl)benzoyl]spiro[chromene-2,4′-piperidin]-4(3H)-one], half-maximal inhibition (IC50) required 452 nM.

Regarding `CN(C)C(=O)c1ccc2c(c1)C(=O)CC1(CCN(C(=O)c3cccc(-c4cc[nH]n4)c3)CC1)O2` [Ex. M29, N,N-dimethyl-4-oxo-1′-[3-(1H-pyrazol-3-yl)benzoyl]-3,4-dihydrospiro[chromene-2,4′-piperidine]-6-carboxamide], the 50% inhibitory concentration (IC50) was determined as 574 nM. The IC50 values of the last two compounds are within 1.5-fold of each other.

Turning to `Cc1ccc2c(c1)OC1(CCN(C(=O)c3cccc(-c4cc[nH]n4)c3)CC1)CC2=O` [Ex. M12, 7-methyl-1′-[3-(1H-pyrazol-3-yl)benzoyl]spiro[chromene-2,4′-piperidin]-4(3H)-one], half-maximal inhibition (IC50) required 205 nM.

`O=C1CC2(CCN(C(=O)c3cccc(-c4cc[nH]n4)c3)CC2)Oc2ccc(Cl)cc21` [Ex. M30, 6-Chloro-1′-[3-(1H-pyrazol-3-yl)benzoyl]spiro[chromene-2,4′-piperidin]-4(3H)-one] registered an IC50 of 613 nM.

In turn, `COc1cc(C)cc2c1C(=O)CC1(CCN(C(=O)c3cccc(-c4cc[nH]n4)c3)CC1)O2` [Ex. M1, 5-methoxy-7-methyl-1′-[3-(1H-pyrazol-3-yl)benzoyl]spiro[chromene-2,4′-piperidin]-4(3H)-one] registered a concentration for half-maximal inhibition (IC50) of 37.5 nM.

Turning to `Cc1cc2c(cc1Br)C(=O)CC1(CCN(C(=O)c3cccc(-c4cc[nH]n4)c3)CC1)O2` [Ex. M10, 6-bromo-7-methyl-1′-[3-(1H-pyrazol-3-yl)benzoyl]spiro[chromene-2,4′-piperidin]-4(3H)-one], the IC50 turned out to be 201 nM. Against the preceding compound, the IC50 is about 5.4-fold higher.

The same assay, now with this note: Table of Examples O1-O4.
In turn, `COc1cc(C)c2c(c1)OC1(CCN(C(=O)c3cccc(-c4ccn[nH]4)c3)CC1)CC2=O` [Ex. O4, 7-methoxy-5-methyl-1′-[3-(1H-pyrazol-5-yl)benzoyl]spiro[chromene-2,4′-piperidin]-4(3H)-one] gave an IC50 of 468 nM.
